Experiments:
[1] = target: Tyrosine-protein kinase BTK (Homo sapiens, UniProt Q06187); experiment: Selectivity interaction (KinomeScan (DiscoverX)) EUB0000618a BTK; conditions: at 10 µM
[2] = target: T1, cAMP-dependent protein kinase catalytic subunit PRKX (Homo sapiens) (UniProt P51817); experiment: Selectivity interaction (Upstate Kinase Profiler service (Millipore)) EUB0000056c PRKX; conditions: at 1 µM
T1 sequence (whole entry): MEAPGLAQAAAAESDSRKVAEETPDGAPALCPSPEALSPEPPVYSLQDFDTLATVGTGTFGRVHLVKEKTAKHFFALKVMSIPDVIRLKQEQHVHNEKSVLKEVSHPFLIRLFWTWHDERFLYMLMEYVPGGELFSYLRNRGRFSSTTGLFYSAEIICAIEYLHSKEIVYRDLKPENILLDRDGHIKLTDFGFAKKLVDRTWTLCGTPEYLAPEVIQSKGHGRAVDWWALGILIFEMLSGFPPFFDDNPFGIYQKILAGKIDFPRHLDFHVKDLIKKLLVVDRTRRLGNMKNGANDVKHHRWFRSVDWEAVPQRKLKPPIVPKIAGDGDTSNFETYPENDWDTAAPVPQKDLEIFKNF

[3] = target: Calcium/calmodulin-dependent protein kinase type II subunit beta (Homo sapiens) (UniProt Q13554); experiment: Selectivity interaction (ActivX KiNativ screen (kinase selectivity in THP-1 cell lysates)) EUB0000639a CAMK2B; type: subcellular; conditions: lysate, at 0.04 µM
[4] = target: Mitogen-activated protein kinase kinase kinase 14 (Homo sapiens) (UniProt Q99558); experiment: Selectivity interaction (KinomeScan (DiscoverX)) EUB0000229b MAP3K14; conditions: at 10 µM
[5] = target: T2, MAP/microtubule affinity-regulating kinase 4 (Homo sapiens) (UniProt Q96L34); experiment: Selectivity interaction (KinomeScan (DiscoverX)) EUB0000229b MARK4; conditions: at 10 µM
T2 sequence (whole entry): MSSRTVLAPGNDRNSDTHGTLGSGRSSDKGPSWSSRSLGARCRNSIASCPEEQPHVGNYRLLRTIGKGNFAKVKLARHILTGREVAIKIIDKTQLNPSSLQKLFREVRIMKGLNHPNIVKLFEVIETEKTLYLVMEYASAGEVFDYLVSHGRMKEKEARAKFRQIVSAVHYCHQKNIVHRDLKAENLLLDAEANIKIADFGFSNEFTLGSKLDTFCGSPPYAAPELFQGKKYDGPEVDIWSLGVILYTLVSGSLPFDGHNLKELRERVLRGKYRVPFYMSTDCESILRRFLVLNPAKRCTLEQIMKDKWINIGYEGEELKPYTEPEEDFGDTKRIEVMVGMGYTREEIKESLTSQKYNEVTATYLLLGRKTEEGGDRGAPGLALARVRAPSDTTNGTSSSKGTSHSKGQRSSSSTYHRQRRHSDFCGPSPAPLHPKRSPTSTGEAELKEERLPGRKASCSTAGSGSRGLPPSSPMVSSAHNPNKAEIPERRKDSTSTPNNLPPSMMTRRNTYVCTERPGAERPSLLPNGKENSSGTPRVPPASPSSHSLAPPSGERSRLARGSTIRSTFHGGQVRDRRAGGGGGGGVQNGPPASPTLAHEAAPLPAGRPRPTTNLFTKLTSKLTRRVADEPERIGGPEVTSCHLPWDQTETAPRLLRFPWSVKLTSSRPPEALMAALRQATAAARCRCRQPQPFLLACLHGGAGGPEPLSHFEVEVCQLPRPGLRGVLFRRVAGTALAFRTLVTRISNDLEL

[6] = target: T3, Serine/threonine-protein kinase tousled-like 1 (Homo sapiens) (UniProt Q9UKI8); experiment: Selectivity interaction (KinomeScan (DiscoverX)) EUB0000229b TLK1; conditions: at 10 µM
T3 sequence (whole entry): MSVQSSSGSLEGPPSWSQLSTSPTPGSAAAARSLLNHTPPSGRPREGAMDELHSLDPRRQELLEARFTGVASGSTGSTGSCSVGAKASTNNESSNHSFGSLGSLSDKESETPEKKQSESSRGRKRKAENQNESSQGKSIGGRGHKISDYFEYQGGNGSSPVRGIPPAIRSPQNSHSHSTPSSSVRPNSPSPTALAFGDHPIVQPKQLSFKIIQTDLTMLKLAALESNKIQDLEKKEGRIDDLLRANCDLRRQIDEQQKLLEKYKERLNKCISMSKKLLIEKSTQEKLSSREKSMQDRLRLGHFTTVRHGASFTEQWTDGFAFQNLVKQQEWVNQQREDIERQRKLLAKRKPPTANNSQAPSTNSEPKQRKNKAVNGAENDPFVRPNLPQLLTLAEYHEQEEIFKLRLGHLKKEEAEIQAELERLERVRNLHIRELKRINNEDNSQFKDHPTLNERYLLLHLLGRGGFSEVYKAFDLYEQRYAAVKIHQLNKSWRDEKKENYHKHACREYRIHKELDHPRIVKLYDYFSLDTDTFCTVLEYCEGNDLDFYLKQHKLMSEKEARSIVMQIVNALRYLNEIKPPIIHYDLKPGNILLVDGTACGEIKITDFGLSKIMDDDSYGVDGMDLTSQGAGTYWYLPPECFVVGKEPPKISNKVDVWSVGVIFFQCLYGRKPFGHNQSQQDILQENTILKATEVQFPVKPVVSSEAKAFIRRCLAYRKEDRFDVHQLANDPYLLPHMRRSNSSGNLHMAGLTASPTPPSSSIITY

[7] = target: Serine/threonine-protein kinase WNK3 (Homo sapiens) (UniProt Q9BYP7); experiment: Selectivity interaction (KinomeScan (DiscoverX)) EUB0000666a WNK3; conditions: at 10 µM
[8] = target: Calcium/calmodulin-dependent protein kinase kinase 1 (Homo sapiens) (UniProt Q8N5S9); experiment: Selectivity interaction (KinomeScan (DiscoverX)) EUB0000666a CAMKK1; conditions: at 10 µM
Chain of Calcium/calmodulin-dependent protein kinase kinase 1 (Homo sapiens) (Q8N5S9 whole entry, looked up): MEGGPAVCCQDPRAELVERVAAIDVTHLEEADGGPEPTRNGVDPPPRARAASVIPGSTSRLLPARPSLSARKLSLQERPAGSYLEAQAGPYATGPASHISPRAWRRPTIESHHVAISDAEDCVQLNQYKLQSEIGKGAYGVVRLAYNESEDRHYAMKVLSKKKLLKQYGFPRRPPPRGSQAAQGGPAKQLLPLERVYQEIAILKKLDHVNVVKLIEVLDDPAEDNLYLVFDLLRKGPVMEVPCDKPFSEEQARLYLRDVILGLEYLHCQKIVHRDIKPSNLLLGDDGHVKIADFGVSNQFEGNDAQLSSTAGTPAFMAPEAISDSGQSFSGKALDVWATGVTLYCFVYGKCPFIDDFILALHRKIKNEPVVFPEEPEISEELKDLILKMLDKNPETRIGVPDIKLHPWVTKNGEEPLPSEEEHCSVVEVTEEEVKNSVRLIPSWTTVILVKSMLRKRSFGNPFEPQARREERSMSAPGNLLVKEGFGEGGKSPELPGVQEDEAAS

Chain of Serine/threonine-protein kinase WNK3 (Homo sapiens) (Q9BYP7 whole entry): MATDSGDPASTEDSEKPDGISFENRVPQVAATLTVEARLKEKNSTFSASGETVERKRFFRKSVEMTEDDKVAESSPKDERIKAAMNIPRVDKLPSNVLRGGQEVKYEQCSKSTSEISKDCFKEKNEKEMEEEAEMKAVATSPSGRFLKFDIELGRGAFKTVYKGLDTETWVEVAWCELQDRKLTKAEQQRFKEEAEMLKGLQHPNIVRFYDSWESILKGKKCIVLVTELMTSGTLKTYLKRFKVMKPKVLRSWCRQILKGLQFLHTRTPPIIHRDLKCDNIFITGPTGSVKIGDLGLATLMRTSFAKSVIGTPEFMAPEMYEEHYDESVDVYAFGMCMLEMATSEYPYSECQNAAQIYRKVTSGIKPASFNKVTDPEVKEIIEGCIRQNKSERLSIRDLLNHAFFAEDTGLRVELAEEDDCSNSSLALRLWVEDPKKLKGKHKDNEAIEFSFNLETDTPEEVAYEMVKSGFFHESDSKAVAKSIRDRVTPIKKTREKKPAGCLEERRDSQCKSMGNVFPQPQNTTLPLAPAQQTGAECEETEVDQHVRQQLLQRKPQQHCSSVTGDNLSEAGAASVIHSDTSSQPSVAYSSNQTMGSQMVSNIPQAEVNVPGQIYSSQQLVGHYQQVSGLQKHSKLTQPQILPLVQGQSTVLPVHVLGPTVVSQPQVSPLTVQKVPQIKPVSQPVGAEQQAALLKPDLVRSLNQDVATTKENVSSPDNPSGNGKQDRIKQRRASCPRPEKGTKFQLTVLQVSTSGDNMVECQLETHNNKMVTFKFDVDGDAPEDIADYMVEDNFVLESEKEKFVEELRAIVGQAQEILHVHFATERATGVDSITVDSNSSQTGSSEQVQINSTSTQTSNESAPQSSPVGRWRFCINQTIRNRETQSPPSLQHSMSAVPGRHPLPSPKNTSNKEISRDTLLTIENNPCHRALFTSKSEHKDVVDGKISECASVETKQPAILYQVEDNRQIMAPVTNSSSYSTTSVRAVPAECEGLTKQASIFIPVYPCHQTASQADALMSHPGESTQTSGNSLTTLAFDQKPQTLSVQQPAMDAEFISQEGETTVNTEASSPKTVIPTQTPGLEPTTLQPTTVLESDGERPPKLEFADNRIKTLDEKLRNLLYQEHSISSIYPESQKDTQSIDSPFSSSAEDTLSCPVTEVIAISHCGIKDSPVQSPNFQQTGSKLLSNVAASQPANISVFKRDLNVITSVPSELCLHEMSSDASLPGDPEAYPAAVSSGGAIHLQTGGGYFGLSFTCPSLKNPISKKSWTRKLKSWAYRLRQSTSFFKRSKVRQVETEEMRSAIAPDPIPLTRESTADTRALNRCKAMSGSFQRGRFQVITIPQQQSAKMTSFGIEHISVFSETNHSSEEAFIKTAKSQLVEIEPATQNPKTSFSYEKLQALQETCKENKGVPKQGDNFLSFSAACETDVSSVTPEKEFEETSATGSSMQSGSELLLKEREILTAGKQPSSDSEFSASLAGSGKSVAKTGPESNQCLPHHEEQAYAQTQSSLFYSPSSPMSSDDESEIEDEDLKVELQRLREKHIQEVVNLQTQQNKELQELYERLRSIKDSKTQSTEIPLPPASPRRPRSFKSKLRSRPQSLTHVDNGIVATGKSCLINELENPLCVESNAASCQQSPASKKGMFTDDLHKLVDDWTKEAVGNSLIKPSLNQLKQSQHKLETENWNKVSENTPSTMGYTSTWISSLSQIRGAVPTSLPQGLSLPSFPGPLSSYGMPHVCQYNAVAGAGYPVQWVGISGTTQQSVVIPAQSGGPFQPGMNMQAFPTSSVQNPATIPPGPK
Chain of Tyrosine-protein kinase BTK (Q06187 whole entry): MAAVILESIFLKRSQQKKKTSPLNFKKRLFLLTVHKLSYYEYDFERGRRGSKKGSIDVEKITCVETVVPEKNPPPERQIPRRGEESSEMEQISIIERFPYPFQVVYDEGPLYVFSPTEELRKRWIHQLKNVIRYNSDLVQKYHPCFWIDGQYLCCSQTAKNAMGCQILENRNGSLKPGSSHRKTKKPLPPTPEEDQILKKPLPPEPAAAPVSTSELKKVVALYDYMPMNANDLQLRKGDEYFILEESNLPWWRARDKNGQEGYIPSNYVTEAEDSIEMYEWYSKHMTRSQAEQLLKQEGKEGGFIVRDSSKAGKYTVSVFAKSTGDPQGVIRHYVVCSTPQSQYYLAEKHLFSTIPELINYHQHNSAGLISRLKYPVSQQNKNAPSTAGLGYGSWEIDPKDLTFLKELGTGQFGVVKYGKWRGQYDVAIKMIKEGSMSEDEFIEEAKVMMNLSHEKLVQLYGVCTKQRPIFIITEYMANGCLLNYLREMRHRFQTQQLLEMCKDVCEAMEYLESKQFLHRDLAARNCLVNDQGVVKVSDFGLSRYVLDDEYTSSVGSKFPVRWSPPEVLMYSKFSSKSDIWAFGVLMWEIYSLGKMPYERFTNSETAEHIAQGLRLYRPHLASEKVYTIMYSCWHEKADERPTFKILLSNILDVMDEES
Chain of Calcium/calmodulin-dependent protein kinase type II subunit beta (Homo sapiens) (Q13554 whole entry): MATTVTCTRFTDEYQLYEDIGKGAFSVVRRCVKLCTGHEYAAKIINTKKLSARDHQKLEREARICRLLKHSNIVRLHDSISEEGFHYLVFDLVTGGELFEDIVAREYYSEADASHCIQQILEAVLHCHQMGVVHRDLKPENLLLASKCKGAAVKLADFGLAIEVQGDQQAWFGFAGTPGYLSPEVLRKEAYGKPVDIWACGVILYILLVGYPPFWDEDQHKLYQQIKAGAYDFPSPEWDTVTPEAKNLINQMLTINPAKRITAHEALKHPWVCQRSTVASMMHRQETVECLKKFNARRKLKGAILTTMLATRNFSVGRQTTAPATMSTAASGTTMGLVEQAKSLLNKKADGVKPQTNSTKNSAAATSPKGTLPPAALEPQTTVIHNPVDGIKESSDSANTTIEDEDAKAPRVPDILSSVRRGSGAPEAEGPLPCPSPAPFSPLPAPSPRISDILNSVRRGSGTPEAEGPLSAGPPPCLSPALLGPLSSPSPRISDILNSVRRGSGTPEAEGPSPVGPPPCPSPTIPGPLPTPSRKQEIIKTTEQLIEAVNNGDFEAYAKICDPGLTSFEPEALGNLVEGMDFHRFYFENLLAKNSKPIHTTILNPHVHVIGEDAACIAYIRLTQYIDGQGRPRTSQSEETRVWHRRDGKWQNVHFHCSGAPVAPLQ
Chain of Mitogen-activated protein kinase kinase kinase 14 (Homo sapiens) (Q99558 whole entry, looked up): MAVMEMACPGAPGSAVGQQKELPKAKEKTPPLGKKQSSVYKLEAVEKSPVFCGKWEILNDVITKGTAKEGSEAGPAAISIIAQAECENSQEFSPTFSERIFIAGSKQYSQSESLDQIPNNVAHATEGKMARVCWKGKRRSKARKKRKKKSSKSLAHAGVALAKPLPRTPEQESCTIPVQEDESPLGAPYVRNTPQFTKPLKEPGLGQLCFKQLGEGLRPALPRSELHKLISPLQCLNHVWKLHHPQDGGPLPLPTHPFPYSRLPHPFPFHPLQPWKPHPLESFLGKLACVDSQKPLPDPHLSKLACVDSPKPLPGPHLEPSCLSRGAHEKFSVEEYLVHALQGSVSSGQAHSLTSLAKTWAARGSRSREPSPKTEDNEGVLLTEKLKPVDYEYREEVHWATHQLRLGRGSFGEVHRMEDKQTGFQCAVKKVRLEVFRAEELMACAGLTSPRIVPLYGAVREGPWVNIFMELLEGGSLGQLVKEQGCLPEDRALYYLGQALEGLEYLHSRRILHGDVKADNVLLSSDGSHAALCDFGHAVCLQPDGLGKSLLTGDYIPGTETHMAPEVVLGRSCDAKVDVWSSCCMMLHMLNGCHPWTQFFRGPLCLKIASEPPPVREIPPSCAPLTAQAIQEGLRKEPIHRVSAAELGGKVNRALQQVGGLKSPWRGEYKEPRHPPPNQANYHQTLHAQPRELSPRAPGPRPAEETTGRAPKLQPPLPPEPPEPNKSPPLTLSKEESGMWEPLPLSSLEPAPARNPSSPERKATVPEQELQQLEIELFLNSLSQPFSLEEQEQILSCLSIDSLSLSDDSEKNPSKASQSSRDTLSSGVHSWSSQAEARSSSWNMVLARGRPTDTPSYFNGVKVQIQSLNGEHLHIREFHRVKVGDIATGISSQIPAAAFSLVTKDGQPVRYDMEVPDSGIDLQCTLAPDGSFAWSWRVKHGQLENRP

## O[C@H]1CC[C@H](Nc2ncc3nc(Nc4c(F)cc(F)cc4F)n([C@H]4CCOC4)c3n2)CC1
[1]
  % of control: 100%

## Cc1ccc(-c2ccc3c(ccc4sc5c(c43)NC[C@@H](C)NC5=O)n2)cn1
[2]
  % of inhibition: 8%

## CC[C@@H]1[C@H](F)C(=O)N[C@@H]1COc1nccc2cc(C(N)=O)c(OC)cc12 [ZIMLOVISERTIB]
[3]
  % of inhibition: 12.8%

## COc1cc(N(C)c2ccnc3ccc(C(F)(F)F)cc23)cc(OC)c1OC
[4]
  % binding: 100%
[5]
  % binding: 87%
[6]
  % binding: 97%

## O=C(NOC[C@H](O)CO)c1ccc(F)c(F)c1Nc1ccc(I)cc1F
[7]
  % of control: 100%
[8]
  % of control: 100%

Source: ChEMBL document CHEMBL5465560, “Selectivity Literature for EUbOPEN Chemogenomic Library” (2024)
